Article PMC9151520 (Archives of Toxicology, 2022)
Like-named read-outs stand apart in the source and are kept apart here.

Key:
[1] = tested on: p53 signaling (p53RE-bla HCT-116 cells); test: cells; type: cell-based
[2] = tested on: p53 signaling (p53RE-bla HCT-116 cells); test: cells; conditions: Homo sapiens
[3] = tested on: p53 signaling (p53RE-bla HCT-116 cells); test: cells; type: cell-based; conditions: for Emax: HCT-116, read-out: efficacy
[4] = tested on: p53 signaling (p53RE-bla HCT-116 cells)
[5] = tested on: p53 signaling (p53RE-bla HCT-116 cells); test: cells; conditions: Homo sapiens; remark: listed apart in the source
[6] = tested on: p53 signaling (p53RE-bla HCT-116 cells); test: cells; type: cell-based; conditions: Homo sapiens; for EC50: HCT-116; for Emax: HCT-116, read-out: efficacy
[7] = tested on: p53RE-bla HCT-116 cells
[8] = tested on: p53 signaling (p53RE-bla HCT-116 cells); remark: listed apart in the source
[9] = HCT-116, read-out: p53 activation EC50, HLM
[10] = HCT-116, read-out: p53 activation efficacy
[11] = HCT-116, read-out: p53 activation EC50, RLM
[12] = read-out: p53 activation EC50, RLM
[13] = HCT-116, read-out: p53 activation efficacy, primary screening

SMILES: CCOP(=S)(OCC)SCn1nnc2ccccc2c1=O [Azinphos-ethyl]
- p53 activation EC50, No MS [1]: inactive
- p53 activation Efficacy, No MS [1]: inactive
- EC50 ([2]; HCT-116): 2.17 µM
- Emax ([2]; HCT-116, read-out: efficacy): 47.5%
- EC50 ([3]; Homo sapiens, HCT-116, 0.5 h): 22.8 µM
- p53 activation EC50, HLM [4]: inactive
- EC50 [5, 9]: 1.98 µM
- EC50 [6]: 2.16 µM
- Viability EC50, HLM [7]: inactive
- Viability EC50, No MS [7]: inactive
- Viability EC50, RLM [7]: inactive
- Viability Efficacy, HLM [7]: inactive
- Viability Efficacy, No MS [7]: inactive
- Viability Efficacy, RLM [7]: inactive

SMILES: CCOP(=S)(OCC)OC(Cl)C(Cl)(Cl)Cl (stereo not shown) [Chlorethoxyfos]
- p53 activation EC50 [1]: inactive
- p53 activation efficacy [1]: inactive
- EC50 ([2]; HCT-116): 11.4 µM
- Emax ([2]; HCT-116, read-out: efficacy): 35.9%
- Emax [2, 10]: 43.1%
- p53 activation efficacy [8]: 53.0303
- EC50 ([8]; read-out: p53 activation EC50): 11.7 µM
- EC50 ([3]; Homo sapiens, HCT-116, 0.5 h): 0.75 µM
- p53 activation EC50 [4]: inactive
- Emax [5, 10]: 44%
- EC50 [6]: 7.79 µM
- Viability EC50 [7]: inactive
- Viability efficacy [7]: inactive

SMILES: CNP(=O)(OC)Oc1ccc(C(C)(C)C)cc1Cl (stereo not shown) [Crufomate]
- p53 activation EC50, No MS [1]: inactive
- p53 activation Efficacy, No MS [1]: inactive
- EC50 ([2]; HCT-116): 4.36 µM
- Emax ([2]; HCT-116, read-out: efficacy): 66.6%
- EC50 ([3]; Homo sapiens, HCT-116, 0.5 h): 0.33 µM
- p53 activation EC50, HLM [4]: inactive
- EC50 [5, 9]: 4.17 µM
- EC50 [6]: 3.29 µM
- Viability EC50, HLM [7]: inactive
- Viability EC50, No MS [7]: inactive
- Viability EC50, RLM [7]: inactive
- Viability Efficacy, HLM [7]: inactive
- Viability Efficacy, No MS [7]: inactive
- Viability Efficacy, RLM [7]: inactive

SMILES: CCOP(=O)(OCC)Oc1cc(C)nc(C(C)C)n1 [Diazoxon]
- p53 activation EC50 [1]: inactive
- p53 activation efficacy [1]: inactive
- EC50 ([2]; HCT-116): 6.57 µM
- Emax ([2]; HCT-116, read-out: efficacy): 43.6%
- EC50 ([3]; Homo sapiens, HCT-116, 0.5 h): 3.83 µM
- Emax ([3]; Homo sapiens): 58.5%
- p53 activation EC50 [4]: inactive
- EC50 ([5]; HCT-116, read-out: p53 activation EC50): 20.2 µM
- Emax [5, 10]: 39.6%
- EC50 [6]: 13.9 µM
- Emax [6]: 61.3%
- Viability EC50 [7]: inactive
- Viability efficacy [7]: inactive

SMILES: COP(=S)(OC)Oc1ccc(SC)c(C)c1 [Fenthion]
- p53 activation EC50, No MS [1]: inactive
- p53 activation Efficacy, No MS [1]: inactive
- EC50 ([2]; HCT-116): 7.81 µM
- Emax ([2]; HCT-116, read-out: efficacy): 39%
- EC50 [2, 11]: 8.91 µM
- EC50 [8, 12]: 7.2 µM
- EC50 ([3]; Homo sapiens, HCT-116, 0.5 h): 1.28 µM
- p53 activation EC50, HLM [4]: inactive
- EC50 [5, 9]: 1.1 µM
- EC50 [6]: 8.86 µM
- Viability EC50, HLM [7]: inactive
- Viability EC50, No MS [7]: inactive
- Viability EC50, RLM [7]: inactive
- Viability Efficacy, HLM [7]: inactive
- Viability Efficacy, No MS [7]: inactive
- Viability Efficacy, RLM [7]: inactive

SMILES: COP(N)(=O)SC (stereo not shown) [Methamidophos]
- p53 activation EC50, No MS [1]: inactive
- p53 activation Efficacy, No MS [1]: inactive
- EC50 ([2]; HCT-116): 11.4 µM
- Emax ([2]; HCT-116, read-out: efficacy): 48.9%
- EC50 [2, 11]: 11.2 µM
- EC50 [8, 12]: 13.8 µM
- EC50 ([3]; Homo sapiens, HCT-116, 0.5 h): 6.02 µM
- p53 activation EC50, HLM [4]: inactive
- EC50 [5, 9]: 2.04 µM
- EC50 [6]: 9.77 µM
- Viability EC50, HLM [7]: inactive
- Viability EC50, No MS [7]: inactive
- Viability EC50, RLM [7]: inactive
- Viability Efficacy, HLM [7]: inactive
- Viability Efficacy, No MS [7]: inactive
- Viability Efficacy, RLM [7]: inactive

SMILES: CNC(=O)O/N=C(\SC)C(=O)N(C)C [Oxamyl]
- p53 activation EC50, No MS [1]: inactive
- p53 activation Efficacy, No MS [1]: inactive
- EC50 ([2]; HCT-116): 14.2 µM
- Emax ([2]; HCT-116, read-out: efficacy): 58.1%
- EC50 [2, 11]: 14.1 µM
- EC50 [8, 12]: 10.9 µM
- EC50 ([3]; Homo sapiens, HCT-116, 0.5 h): 14.4 µM
- p53 activation EC50, HLM [4]: inactive
- EC50 [5, 9]: 2.96 µM
- EC50 [6]: 22.4 µM
- Viability EC50, HLM [7]: inactive
- Viability EC50, No MS [7]: inactive
- Viability EC50, RLM [7]: inactive
- Viability Efficacy, HLM [7]: inactive
- Viability Efficacy, No MS [7]: inactive
- Viability Efficacy, RLM [7]: inactive

SMILES: COP(=S)(OC)SCN1C(=O)c2ccccc2C1=O [Phosmet]
- p53 activation EC50, No MS [1]: inactive
- p53 activation Efficacy, No MS [1]: inactive
- EC50 ([2]; HCT-116): 11.6 µM
- Emax ([2]; HCT-116, read-out: efficacy): 52.6%
- EC50 ([3]; Homo sapiens, HCT-116, 0.5 h): 18.7 µM
- Emax ([3]; Homo sapiens): 48.2%
- p53 activation EC50, HLM [4]: inactive
- EC50 [5, 9]: 7.57 µM
- EC50 [6]: 8.04 µM
- Emax [6]: 49%
- Viability EC50, HLM [7]: inactive
- Viability EC50, No MS [7]: inactive
- Viability EC50, RLM [7]: inactive
- Viability Efficacy, HLM [7]: inactive
- Viability Efficacy, No MS [7]: inactive
- Viability Efficacy, RLM [7]: inactive

SMILES: CCOP(=S)(OCC)O/N=C(\C#N)c1ccccc1 [Phoxim]
- p53 activation EC50, No MS [1]: inactive
- p53 activation Efficacy, No MS [1]: inactive
- EC50 ([2]; HCT-116): 4.42 µM
- Emax ([2]; HCT-116, read-out: efficacy): 34.4%
- EC50 [2, 11]: 3.04 µM
- EC50 [8, 12]: 5.83 µM
- EC50 ([3]; Homo sapiens, HCT-116, 0.5 h): 5.35 µM
- Emax ([3]; Homo sapiens): 43.5%
- p53 activation EC50, HLM [4]: inactive
- EC50 [5, 9]: 2.17 µM
- EC50 [6]: 5.3 µM
- Emax [6]: 42.2%
- Viability EC50, HLM [7]: inactive
- Viability EC50, No MS [7]: inactive
- Viability EC50, RLM [7]: inactive
- Viability Efficacy, HLM [7]: inactive
- Viability Efficacy, No MS [7]: inactive
- Viability Efficacy, RLM [7]: inactive

SMILES: CCOP(=S)(OCC)OP(=S)(OCC)OCC [Sulfotepp]
- p53 activation EC50, No MS [1]: inactive
- p53 activation Efficacy, No MS [1]: inactive
- EC50 ([2]; HCT-116): 14.3 µM
- Emax ([2]; HCT-116, read-out: efficacy): 37.4%
- EC50 [3]: Inactive
- p53 activation EC50, HLM [4]: inactive
- EC50 [5, 9]: 21.6 µM
- EC50 [6]: 16.6 µM
- Emax [6]: 42.1%
- Viability EC50, HLM [7]: inactive
- Viability EC50, No MS [7]: inactive
- Viability EC50, RLM [7]: inactive
- Viability Efficacy, HLM [7]: inactive
- Viability Efficacy, No MS [7]: inactive
- Viability Efficacy, RLM [7]: inactive

SMILES: Nc1nc(N)c2nc(-c3ccccc3)c(N)nc2n1 [Triamterene]
- EC50 ([1]; Homo sapiens, HCT-116, read-out: p53 activation EC50, No MS): 28.7 µM
- EC50 ([1]; read-out: p53 activation EC50, No MS): 27.6 µM
- EC50 [2, 11]: 30.5 µM
- EC50 [8, 12]: 42.4 µM
- p53 activation EC50, HLM [4]: inactive
- EC50 [5, 9]: 16.4 µM
- Viability EC50, HLM [7]: inactive
- Viability EC50, No MS [7]: inactive
- Viability EC50, RLM [7]: inactive
- Viability Efficacy, HLM [7]: inactive
- Viability Efficacy, No MS [7]: inactive
- Viability Efficacy, RLM [7]: inactive

SMILES: CCCCSP(=O)(SCCCC)SCCCC [Tribufos]
- p53 activation EC50, cherry pick confirmation [1]: inactive
- p53 activation EC50, primary screening [1]: inactive
- p53 activation efficacy, cherry pick confirmation [1]: inactive
- p53 activation efficacy, primary screening [1]: inactive
- EC50 ([2]; HCT-116): 2.16 µM
- Emax ([2]; HCT-116, read-out: efficacy): 44.2%
- EC50 ([2]; HCT-116, read-out: p53 activation EC50, cherry pick confirmation): 1.86 µM
- Emax ([2]; HCT-116, read-out: p53 activation efficacy, cherry pick confirmation): 41.6%
- Emax [2, 13]: 36%
- EC50 ([3]; Homo sapiens, HCT-116, 0.5 h): 0.74 µM
- p53 activation EC50, cherry pick confirmation [4]: inactive
- p53 activation efficacy, cherry pick confirmation [4]: inactive
- Emax [5, 13]: 34.6%
- EC50 [6]: 1.32 µM
- Viability EC50, cherry pick confirmation [7]: inactive
- Viability EC50, primary screening [7]: inactive
- Viability efficacy, cherry pick confirmation [7]: inactive
- Viability efficacy, primary screening [7]: inactive
